Assay results reported in ChEMBL document CHEMBL4417631, “Oral peptide inhibitors of interleukin-23 receptor and their use to treat inflammatory bowel diseases” (2017).
*1 amine or outer side, *2 acyl side, *3 side chain or, on linkers, in order; H or OH if unused. Where a SMILES comes first, the peptide text is derived from it. Bridges are numbered along the chain shown (N, C = ends). [ ]: non-standard residue; d: D form. Abu(4-yl) = O=C([C@H](CC[*:3])N[*:1])[*:2]; 2Nal = N[C@@H](Cc1ccc2ccccc2c1)C(=O)O; AEF = NCCOc1ccc(C[C@H](N)C(=O)O)cc1; αMeK = C[C@](N)(CCCCN)C(=O)O

What was measured:
[1] = Inhibition of interleukin-23 binding to rat interleukin-23 receptor incubated for 2 hrs by competitive binding ELISA
[2] = target: T1, Interleukin-23 receptor (Homo sapiens, UniProt Q5VWK5); assay: Inhibition of interleukin-23 receptor in human DB cells assessed as reduction in IL-23-stimulated STAT3 phosphorylation incubated for 30 mins by HTRF assay; format: cell-based
T1 sequence (Q5VWK5 whole entry): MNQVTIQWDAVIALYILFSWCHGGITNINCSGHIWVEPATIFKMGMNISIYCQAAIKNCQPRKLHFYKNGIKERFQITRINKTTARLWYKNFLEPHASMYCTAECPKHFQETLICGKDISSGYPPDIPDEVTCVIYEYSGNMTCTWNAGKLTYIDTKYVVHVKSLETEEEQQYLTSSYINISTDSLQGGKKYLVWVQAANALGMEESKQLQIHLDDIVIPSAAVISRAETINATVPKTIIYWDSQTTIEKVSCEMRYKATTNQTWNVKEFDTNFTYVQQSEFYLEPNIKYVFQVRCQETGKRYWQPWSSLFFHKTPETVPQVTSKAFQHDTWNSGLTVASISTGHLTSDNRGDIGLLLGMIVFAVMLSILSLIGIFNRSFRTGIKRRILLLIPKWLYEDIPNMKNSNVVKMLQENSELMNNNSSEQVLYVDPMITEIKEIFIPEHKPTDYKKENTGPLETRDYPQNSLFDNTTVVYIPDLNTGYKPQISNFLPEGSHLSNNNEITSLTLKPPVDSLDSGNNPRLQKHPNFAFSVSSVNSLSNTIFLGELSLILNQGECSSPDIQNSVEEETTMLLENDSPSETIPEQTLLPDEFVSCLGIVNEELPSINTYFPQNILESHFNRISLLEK

[3] = target: T1, Interleukin-23 receptor; assay: Inhibition of interleukin-23 binding to human interleukin-23 receptor incubated for 2 hrs by competitive binding ELISA

With `CC(=O)NCCCC[C@](C)(NC(=O)[C@H](Cc1ccc2ccccc2c1)NC(=O)[C@H](Cc1ccc(OCCNC(C)=O)cc1)NC(=O)[C@@H]1CSCC[C@H](NC(C)=O)C(=O)N[C@@H](CCC(N)=O)C(=O)N[C@@H]([C@@H](C)O)C(=O)N[C@@H](Cc2c[nH]c3ccccc23)C(=O)N[C@@H](CCC(N)=O)C(=O)N1)C(=O)N[C@@H](CCC(=O)O)C(=O)N[C@@H](CC(N)=O)C(=O)N[C@@H](CCC(N)=O)C(N)=O` (Ac-[Abu(4-yl)]QTWQC[AEF](Ac)[2Nal][αMeK](Ac)ENQ-NH2; thioether 1-6) the IC50 [1] was under 10 nM, the IC50 [2] was under 10 nM and the IC50 [3] was under 10 nM.

With `CC(=O)NCCCC[C@H](NC(=O)[C@H](CCC(C)C)NC(=O)[C@H](Cc1c[nH]c2ccccc12)NC(=O)[C@H](Cc1ccc(O)cc1)NC(=O)[C@H](CS)NC(=O)[C@H](CCC(N)=O)NC(=O)[C@H](Cc1c[nH]c2ccccc12)NC(=O)[C@@H](NC(=O)[C@H](CCC(N)=O)NC(=O)[C@H](CS)NC(C)=O)[C@@H](C)O)C(=O)N[C@@H](CC(N)=O)C(=O)NCC(N)=O` the IC50 [1] was 32 nM and the IC50 [2] was 3 nM.

With `CC(=O)N[C@H](C(=O)N[C@@H](CCCNC(=N)N)C(=O)N[C@H](C(=O)N[C@@H](Cc1c[nH]c2ccccc12)C(=O)N[C@@H](CCC(N)=O)C(=O)N[C@@H](CS)C(=O)N[C@@H](Cc1ccc(O)cc1)C(=O)N[C@@H](Cc1c[nH]c2ccccc12)C(=O)N[C@@H](CCCNC(=N)N)C(=O)N[C@@H](CCCCN)C(=O)N[C@@H](Cc1ccccc1)C(=O)NCC(=O)NCCOCC(=O)N[C@H](CCCCN)C(N)=O)[C@@H](C)O)C(C)(C)S` the IC50 [1] was 100 to 1000 nM, the IC50 [2] was 100 to 1000 nM and the IC50 [3] was 100 to 1000 nM.

In the case of `CC(=O)N[C@@H](CS)C(=O)N[C@@H](CCC(N)=O)C(=O)N[C@H](C(=O)N[C@@H](Cc1c[nH]c2ccccc12)C(=O)N[C@@H](CCC(N)=O)C(=O)N[C@@H](CS)C(=O)N[C@@H](Cc1ccc(O)cc1)C(=O)N[C@@H](Cc1c[nH]c2ccccc12)C(=O)N[C@@H](CCC(C)C)C(=O)N[C@@H](CCC(=O)O)C(=O)N[C@@H](CC(N)=O)C(=O)NCC(=O)NCC(N)=O)[C@@H](C)O`, the IC50 [1] is reported as 140 nM and the IC50 [3] is reported as 61 to 362 nM.

In the case of `CC(=O)N[C@@H](CS)C(=O)N[C@@H](CCCNC(=N)N)C(=O)N[C@H](C(=O)N[C@@H](Cc1c[nH]c2ccccc12)C(=O)N[C@@H](CCC(N)=O)C(=O)N[C@@H](CS)C(=O)N[C@@H](Cc1ccc(O)cc1)C(=O)N[C@@H](Cc1c[nH]c2ccccc12)C(=O)N[C@@H](CCCNC(=N)N)C(=O)N[C@@H](CCC(=O)O)C(=O)N[C@@H](Cc1ccc(O)cc1)C(=O)NCC(=O)N[C@@H](C)C(=O)N[C@H](CCCCN)C(N)=O)[C@@H](C)O`, the IC50 [1] is reported as 80 nM and the IC50 [2] is reported as 8 nM.

Work on `CC(=O)N[C@@H](CS)C(=O)N[C@@H](CCCNC(=N)N)C(=O)N[C@H](C(=O)N[C@@H](Cc1c[nH]c2ccccc12)C(=O)N[C@@H](CCC(N)=O)C(=O)N[C@@H](CS)C(=O)N[C@@H](Cc1ccc(O)cc1)C(=O)N[C@@H](Cc1c[nH]c2ccccc12)C(=O)N[C@@H](CO)C(=O)N[C@@H](CCC(=O)O)C(=O)N[C@@H](Cc1ccccc1)C(=O)NCC(=O)N[C@H](C(=O)NCC(=O)N[C@@H](CCC(=O)O)C(N)=O)[C@@H](C)O)[C@@H](C)O` (Ac-CRTWQCYWSEFGTGE-NH2) yielded an IC50 [1] of 778 nM.

Work on `CC(=O)N[C@@H](CS)C(=O)N[C@@H](CCC(N)=O)C(=O)N[C@H](C(=O)N[C@@H](Cc1c[nH]c2ccccc12)C(=O)N[C@@H](CCC(N)=O)C(=O)N[C@@H](CS)C(=O)N[C@@H](Cc1ccc(O)cc1)C(=O)N[C@@H](Cc1ccc(-c2ccccc2)cc1)C(=O)N[C@@H](CCC(C)C)C(=O)N[C@@H](CCC(=O)O)C(=O)N[C@@H](CC(N)=O)C(=O)NCC(N)=O)[C@@H](C)O` yielded an IC50 [1] of 51 nM.

For `CC(=O)N[C@@H](CS)C(=O)N[C@@H](CCC(N)=O)C(=O)N[C@H](C(=O)N[C@@H](Cc1c[nH]c2ccccc12)C(=O)N[C@@H](CCC(N)=O)C(=O)N[C@@H](CS)C(=O)N[C@@H](Cc1ccc(O)cc1)C(=O)N[C@@H](Cc1cccc2ccccc12)C(=O)N[C@@](C)(CC(C)C)C(=O)N[C@@H](CCC(=O)O)C(=O)N[C@@H](CC(N)=O)C(=O)NCC(N)=O)[C@@H](C)O`, the IC50 [1] was 67 nM.

Molecule `CC(=O)N[C@@H](CS)C(=O)N(C)[C@@H](CCCNC(=N)N)C(=O)N[C@H](C(=O)N[C@@H](Cc1c[nH]c2ccccc12)C(=O)N[C@@H](CCC(N)=O)C(=O)N[C@@H](CS)C(=O)N[C@@H](Cc1ccc(O)cc1)C(=O)N[C@@H](Cc1c[nH]c2ccccc12)C(=O)N[C@@H](CCCNC(=N)N)C(=O)N[C@H](C(=O)N[C@@H](Cc1ccccc1)C(=O)NCC(=O)NCCC(=O)N[C@H](CCCCN)C(N)=O)C(C)C)[C@@H](C)O` has an IC50 [1] of 192 nM.

`CC(=O)N[C@@H](CS)C(=O)N[C@@H](CCC(N)=O)C(=O)N[C@H](C(=O)N[C@@H](Cc1c[nH]c2ccccc12)C(=O)N[C@@H](CCC(N)=O)C(=O)N[C@@H](CS)C(=O)N[C@@H](Cc1ccc(O)cc1)C(=O)N[C@@H](Cc1c[nH]c2ccccc12)C(=O)N[C@@H](CCC(C)C)C(=O)N[C@@H](CCC(=O)O)C(=O)N1CCC[C@H]1C(=O)NCC(N)=O)[C@@H](C)O` gave an IC50 [1] of 140 nM.

For `CC(=O)N[C@@H](CS)C(=O)N[C@@H](CCN)C(=O)N[C@H](C(=O)N[C@@H](Cc1c[nH]c2ccccc12)C(=O)N[C@@H](CCC(N)=O)C(=O)N[C@@H](CS)C(=O)N[C@@H](Cc1ccc(O)cc1)C(=O)N[C@@H](Cc1c[nH]c2ccccc12)C(=O)N[C@@H](CCCNC(=N)N)C(=O)N[C@H](C(=O)N[C@@H](Cc1ccccc1)C(=O)NCC(=O)NCCOCC(=O)N[C@H](CCCCN)C(N)=O)C(C)C)[C@@H](C)O`, the IC50 [1] was 51 nM.

In the case of `CC(=O)N[C@@H](CS)C(=O)N[C@@H](CCC(N)=O)C(=O)N[C@H](C(=O)N[C@@H](Cc1c[nH]c2ccccc12)C(=O)N[C@@H](CCC(N)=O)C(=O)N[C@@H](CS)C(=O)N[C@@H](Cc1ccc(O)cc1)C(=O)N[C@@H](Cc1c[nH]c2ccccc12)C(=O)N[C@@](C)(CC(C)C)C(=O)N[C@@H](CCC(=O)O)C(=O)N[C@@H](CC(N)=O)C(=O)NCC(N)=O)[C@@H](C)O`, the IC50 [1] is reported as 27 nM and the IC50 [2] is reported as 5 nM.

With `CC(=O)N[C@@H](CS)C(=O)N[C@@H](CCCNC(N)=O)C(=O)N[C@H](C(=O)N[C@@H](Cc1c[nH]c2ccccc12)C(=O)N[C@@H](CCC(N)=O)C(=O)N[C@@H](CS)C(=O)N[C@@H](Cc1ccc(O)cc1)C(=O)N[C@@H](Cc1c[nH]c2ccccc12)C(=O)N[C@@H](CCCNC(=N)N)C(=O)N[C@H](C(=O)N[C@@H](Cc1ccccc1)C(=O)NCC(=O)NCCC(=O)N[C@H](CCCCN)C(N)=O)C(C)C)[C@@H](C)O` the IC50 [1] was 76 nM and the IC50 [3] was 50 nM.

Molecule `CC(=O)N[C@@H](CS)C(=O)N[C@@H](CCC(N)=O)C(=O)N[C@H](C(=O)N[C@@H](Cc1c[nH]c2ccccc12)C(=O)N[C@@H](CCC(N)=O)C(=O)N[C@@H](CS)C(=O)N[C@@H](Cc1ccc(O)cc1)C(=O)N[C@@H](Cc1c[nH]c2ccccc12)C(=O)N[C@@H](CCC(C)C)C(=O)N[C@@H](CCC(=O)O)C(=O)N[C@@H](CC(N)=O)C(=O)N[C@@H](CCC(=O)O)C(N)=O)[C@@H](C)O` has an IC50 [1] of 1000 nM.

Work on `CC(=O)N[C@@H](CS)C(=O)N[C@@H](CCC(N)=O)C(=O)N[C@H](C(=O)N[C@@H](Cc1c[nH]c2ccccc12)C(=O)N[C@@H](CCC(N)=O)C(=O)N[C@@H](CS)C(=O)N[C@@H](Cc1ccc(O)cc1)C(=O)N[C@@H](Cc1c[nH]c2ccccc12)C(=O)N[C@@H](Cc1cccnc1)C(=O)N[C@@H](CCC(=O)O)C(=O)N[C@@H](CC(N)=O)C(=O)NCC(N)=O)[C@@H](C)O` yielded an IC50 [1] of 20 nM.

`CC(=O)N[C@@H](CS)C(=O)N[C@@H](CO)C(=O)N[C@H](C(=O)N[C@@H](Cc1c[nH]c2ccccc12)C(=O)N[C@@H](CCC(N)=O)C(=O)N[C@@H](CS)C(=O)N[C@@H](Cc1ccc(O)cc1)C(=O)N[C@@H](Cc1c[nH]c2ccccc12)C(=O)N[C@@H](CO)C(=O)N[C@@H](CCCCN)C(=O)N[C@@H](CCC(N)=O)C(=O)N[C@@H](CO)C(=O)NCC(=O)NCC(=O)N[C@@H](CO)C(N)=O)[C@@H](C)O` (Ac-CSTWQCYWSKQSGGS-NH2) gave an IC50 [1] of 204 nM.

`CC(=O)N[C@@H](CS)C(=O)N[C@@H](CO)C(=O)N[C@H](C(=O)N[C@@H](Cc1c[nH]c2ccccc12)C(=O)N[C@@H](CCC(N)=O)C(=O)N[C@@H](CS)C(=O)N[C@@H](Cc1ccc(O)cc1)C(=O)N[C@@H](Cc1c[nH]c2ccccc12)C(=O)N[C@@H](CC(C)C)C(=O)N[C@@H](CCCCN)C(=O)N[C@@H](Cc1cnc[nH]1)C(=O)NCC(=O)NCC(=O)N[C@@H](CCC(=O)O)C(N)=O)[C@@H](C)O` (Ac-CSTWQCYWLKHGGE-NH2) showed an IC50 [1] of 24 nM and an IC50 [2] of 2 nM.

`CC(=O)N[C@@H](CS)C(=O)N[C@@H](CO)C(=O)N[C@H](C(=O)N[C@@H](Cc1c[nH]c2ccccc12)C(=O)N[C@@H](CCC(=O)O)C(=O)N[C@@H](CS)C(=O)N[C@@H](Cc1ccc(O)cc1)C(=O)N[C@@H](Cc1c[nH]c2ccccc12)C(=O)N[C@@H](Cc1cnc[nH]1)C(=O)N[C@H](C(=O)N[C@@H](Cc1ccc(O)cc1)C(=O)NCC(N)=O)[C@@H](C)O)[C@@H](C)O` gave an IC50 [1] of 286 nM.

Molecule `CC(=O)N[C@@H](CS)C(=O)N[C@@H](CCC(N)=O)C(=O)N[C@H](C(=O)N[C@@H](Cc1c[nH]c2ccccc12)C(=O)N[C@@H](CCC(N)=O)C(=O)N[C@@H](CS)C(=O)N[C@@H](Cc1cccc2ccccc12)C(=O)N[C@@H](Cc1ccc2ccccc2c1)C(=O)N[C@@H](CCC(C)C)C(=O)N[C@@H](CCC(=O)O)C(=O)N[C@@H](CC(N)=O)C(=O)NCC(N)=O)[C@@H](C)O` has an IC50 [1] of 125 nM.
